Each structure is given as a SMILES string.

In one experiment the target is CXCR3 (Macaca fascicularis, UniProt A0A2K5UV19). Put plainly: functional cellular assay measuring calcium flux in CXCR3 transfected cells (block of CXCR3/IP-10 interaction).
CXCR3, sequence (A0A2K5UV19 entry or part of it): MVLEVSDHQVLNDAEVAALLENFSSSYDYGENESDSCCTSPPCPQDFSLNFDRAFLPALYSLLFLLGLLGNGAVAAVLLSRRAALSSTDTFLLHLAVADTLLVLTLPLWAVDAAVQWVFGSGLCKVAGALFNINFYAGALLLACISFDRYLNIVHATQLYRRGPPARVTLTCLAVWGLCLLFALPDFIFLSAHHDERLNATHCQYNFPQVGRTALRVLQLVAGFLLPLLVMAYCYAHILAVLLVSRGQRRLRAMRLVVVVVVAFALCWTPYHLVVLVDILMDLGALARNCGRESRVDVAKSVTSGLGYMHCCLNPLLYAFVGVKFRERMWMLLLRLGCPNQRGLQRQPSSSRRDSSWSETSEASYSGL
Conditions: not given
Format: cell-based, Cyno. The essentials: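 Cyno-CHO cells stably expressing CXCR3 and G-alpha-16, loaded with Ca-4 dye in HBSS/10 mM HEPES pH 7.4 with 2 mM probenecid for 1 h at 37° C. Compound (final 10 microM) preincubated 15 min at room temperature, then IP-10 at EC80 added; calcium flux read at 480/540 nm.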
On the technique in general: Calcium assays in cells follow changes in intracellular calcium, usually with a dye or a luminescent sensor.
Turning to `COc1ncc(-c2ccccc2N2CC3CCC(C2)N3C(=O)Cn2ccc3cccnc32)cn1` [1-{3-[2-(2-Methoxy-pyrimidin-5-yl)-phenyl]-3,8-diaza-bicyclo[3.2.1]oct-8-yl}-2-pyrrolo[2,3-b]pyridin-1-yl-ethanone], the IC50 (in general, the concentration that gives 50% inhibition) was found to be 7 nM.

The same experiment, now with this note: IP-10 induced intracellular calcium flux; Cyno-CHO cells stably expressing recombinant CXCR3 and G-alpha-16; IP-10 at EC80; read-out: IC50.
With `CS(=O)(=O)C1CCN(c2ncc(-c3cc(F)ccc3N3CCN(C(=O)Cn4cnc5cccnc54)CC3)cn2)CC1` [1-[4-(4-fluoro-2-{2-[4-(methylsulfonyl)piperidin-1-yl]pyrimidin-5-yl}phenyl)piperazin-1-yl]-2-(3H-imidazo[4,5-b]pyridin-3-yl)ethanone], the half-inhibitory concentration (IC50) was found to be 10 nM.
Regarding `CNc1ncc(-c2cc(C(F)(F)F)ccc2N2CCN(C(=O)Cn3ccc4cccnc43)CC2)cn1` [1-{4-[2-(2-Methylamino-pyrimidin-5-yl)-4-trifluoromethyl-phenyl]-piperazin-1-yl}-2-pyrrolo[2,3-b]pyridin-1-yl-ethanone], the half-inhibitory concentration (IC50) was 5 nM.
Regarding `COc1ncc(-c2cc(F)ccc2N2CCN(C(=O)Cn3cnc4cccnc43)CC2)cn1` [1-{4-[4-fluoro-2-(2-methoxypyrimidin-5-yl)phenyl]piperazin-1-yl}-2-(3H-imidazo[4,5-b]pyridin-3-yl)ethanone], the IC50 came to 53 nM.
For the molecule `COc1cc(NC(=O)c2cc(F)ccc2N2CCN(C(=O)CN(C)C(=O)C(C)C)[C@@H](C)C2)ccn1` [5-fluoro-N-(2-methoxypyridin-4-yl)-2-{(3S)-3-methyl-4-[N-methyl-N-(2-methylpropanoyl)glycyl]piperazin-1-yl}benzamide], the 50% inhibitory concentration (IC50) came out at 11 nM.
On to `Cc1cc(C)n(CC(=O)N2CCN(c3ccccc3-c3cnc(C)nc3)CC2)n1` [2-(3,5-Dimethyl-pyrazol-1-yl)-1-{4-[2-(2-methyl-pyrimidin-5-yl)-phenyl]-piperazin-1-yl}-ethanone], for which the half-inhibitory concentration (IC50) came to 67 nM.
Consider `Cc1cc(C)n(CC(=O)N2CCN(c3ccc(C#N)cc3-c3cnc(N4CCOCC4)nc3)CC2)n1` [4-{4-[2-(3,5-Dimethyl-pyrazol-1-yl)-acetyl]-piperazin-1-yl}-3-(2-morpholin-4-yl-pyrimidin-5-yl)-benzonitrile], for which the 50% inhibitory concentration (IC50) was found to be 18 nM.
As for `Cc1cc(C)n(CC(=O)N2CCN(c3ccccc3-c3cnc(N4CCC(S(C)(=O)=O)CC4)nc3)CC2C)n1` (stereo not drawn) [2-(3,5-dimethyl-1H-pyrazol-1-yl)-1-[2-methyl-4-(2-{2-[4-(methylsulfonyl)piperidin-1-yl]pyrimidin-5-yl}phenyl)piperazin-1-yl]ethanone], the IC50 worked out at 9 nM.
On the same count and under the same terms, the same measure for `CNC(=O)C1CCN(c2ncc(-c3ccccc3N3CCN(C(=O)Cn4nc(C)cc4C)CC3)cn2)CC1` [1-[5-(2-{4-[2-(3,5-Dimethyl-pyrazol-1-yl)-acetyl]-piperazin-1-yl}-phenyl)-pyrimidin-2-yl]-piperidine-4-carboxylic acid methylamide]: 9 nM; for `COc1ncc(-c2ccccc2N2CCN(C(=O)Cn3cc4ccccc4n3)CC2)cn1` [2-Indazol-2-yl-1-{4-[2-(2-methoxy-pyrimidin-5-yl)-phenyl]-piperazin-1-yl}-ethanone]: 28 nM.
For the molecule `N#Cc1ccc(N2CCN(C(=O)Cn3ccc4cccnc43)CC2)c(-c2cnc(N3CCOCC3)nc2)c1` [3-(2-Morpholin-4-yl-pyrimidin-5-yl)-4-[4-(2-pyrrolo[2,3-b]pyridin-1-yl-acetyl)-piperazin-1-yl]-benzonitrile], the IC50 was 8 nM.
`CC1CN(c2ccccc2-c2cnc(N3CCC(O)CC3)nc2)CCN1C(=O)CN1CCCCC1=O` (stereo not drawn) [1-[2-(4-{2-[2-(4-hydroxypiperidin-1-yl)pyrimidin-5-yl]phenyl}-2-methylpiperazin-1-yl)-2-oxoethyl]piperidin-2-one]: the 50% inhibitory concentration (IC50) was 19 nM.
On the same count and under the same terms, the same measure for `COc1ncc(-c2cc(C#N)ccc2N2CCN(C(=O)Cn3ccc4cccnc43)CC2)cn1` [3-(2-Methoxy-pyrimidin-5-yl)-4-[4-(2-pyrrolo[2,3-b]pyridin-1-yl-acetyl)-piperazin-1-yl]-benzonitrile]: 7 nM.
On to `COc1ncc(-c2cc(Cl)ccc2N2CCN(C(=O)Cn3ccc4cccnc43)CC2)cn1` [1-{4-[4-Chloro-2-(2-methoxy-pyrimidin-5-yl)-phenyl]-piperazin-1-yl}-2-pyrrolo[2,3-b]pyridin-1-yl-ethanone], for which the half-maximal inhibitory concentration (IC50) came to 7 nM.
Still for that read-out and setting: the result for `CC1CN(c2ccc(C(F)(F)F)cc2-c2cnc(S(C)(=O)=O)nc2)CCN1C(=O)Cn1ccc2cccnc21` (stereo not drawn) [1-(2-methyl-4-{2-[2-(methylsulfonyl)pyrimidin-5-yl]-4-(trifluoromethyl)phenyl}piperazin-1-yl)-2-(1H-pyrrolo[2,3-b]pyridin-1-yl)ethanone] reads 30 nM; that for `Cc1cc(C)n(CC(=O)N2CCN(c3ccccc3-c3cnc(N4CC[C@@H](N(C)C)C4)nc3)CC2)n1` [1-(4-{2-[2-((R)-3-Dimethylamino-pyrrolidin-1-yl)-pyrimidin-5-yl]-phenyl}-piperazin-1-yl)-2-(3,5-dimethyl-pyrazol-1-yl)-ethanone], 4 nM.
Consider `CC1CN(c2ccccc2-c2cnc(S(C)(=O)=O)nc2)CCN1C(=O)CN1Cc2ccccc2C1=O` (stereo not drawn) [2-[2-(2-methyl-4-{2-[2-(methylsulfonyl)pyrimidin-5-yl]phenyl}piperazin-1-yl)-2-oxoethyl]-2,3-dihydro-1H-isoindol-1-one], for which the IC50 was found to be 293 nM.
In the case of `CC1CN(c2ccccc2-c2cnc(N3CCC(O)CC3)nc2)CCN1C(=O)Cn1cnc2cccnc21` (stereo not drawn) [1-(4-{2-[2-(4-hydroxypiperidin-1-yl)pyrimidin-5-yl]phenyl}-2-methylpiperazin-1-yl)-2-(3H-imidazo[4,5-b]pyridin-3-yl)ethanone], the IC50 was found to be 11 nM.
Still for that read-out and setting: the result for `COc1cc(NC(=O)c2cc(F)ccc2N2CCN(C(=O)CN(C)C(=O)C(C)C)[C@H](C)C2)ccn1` [5-fluoro-N-(2-methoxypyridin-4-yl)-2-{(3R)-3-methyl-4-[N-methyl-N-(2-methylpropanoyl)glycyl]piperazin-1-yl}benzamide] reads 9 nM; that for `CC1CN(c2ccc(C(F)(F)F)cc2-c2cnc(N3CCC(O)CC3)nc2)CCN1C(=O)Cn1ccc2cccnc21` (stereo not drawn) [1-(4-{2-[2-(4-hydroxypiperidin-1-yl)pyrimidin-5-yl]-4-(trifluoromethyl)phenyl}-2-methylpiperazin-1-yl)-2-(1H-pyrrolo[2,3-b]pyridin-1-yl)ethanone], 10 nM.
For the molecule `Cc1cc(C)n(CC(=O)N2CCN(c3ccccc3-c3ccc(C#N)nc3)CC2)n1` [5-(2-{4-[2-(3,5-Dimethyl-pyrazol-1-yl)-acetyl]-piperazin-1-yl}-phenyl)-pyridine-2-carbonitrile], the IC50 worked out at 18 nM.
As to `CCOc1ncc(-c2ccccc2N2CCN(C(=O)Cn3nc(C)cc3C)CC2)cn1` [2-(3,5-Dimethyl-pyrazol-1-yl)-1-{4-[2-(2-ethoxy-pyrimidin-5-yl)-phenyl]-piperazin-1-yl}-ethanone], the IC50 was found to be 18 nM.
Take `COc1cc(NC(=O)c2cc(F)ccc2N2CCN(C(=O)CN(C)C(=O)c3ncoc3C)[C@@H](C)C2)ccn1` [N-{2-[(2S)-4-{4-fluoro-2-[(2-methoxypyridin-4-yl)carbamoyl]phenyl}-2-methylpiperazin-1-yl]-2-oxoethyl}-N,5-dimethyl-1,3-oxazole-4-carboxamide]: the half-inhibitory concentration (IC50) is 11 nM.
As to `CS(=O)(=O)c1ncc(-c2cc(F)ccc2N2CCN(C(=O)Cn3ccc4cccnc43)CC2)cn1` [1-(4-{4-fluoro-2-[2-(methylsulfonyl)pyrimidin-5-yl]phenyl}piperazin-1-yl)-2-(1H-pyrrolo[2,3-b]pyridin-1-yl)ethanone], the IC50 worked out at 67 nM.

These data come from patent US8450317B2, “CXCR3 receptor antagonists” (Boehringer Ingelheim International GmbH, priority 2009, dated 2013).
